This is an account of results in US9249128B2 (priority 2010, dated 2016).

Read-outs that look alike come from different tables or passages of the source.

As a reminder, the IC50 is the concentration that gives 50% inhibition.

The target of assay [1] is T1, KIAA1363 (Mus musculus, UniProt Q8BLF1).
T1 construct: ABPP analysis of KIAA1363 activity in mouse brain membrane proteome; from tissue; host or cells: mouse brain (membrane fraction)
T1 sequence (Q8BLF1 1-408): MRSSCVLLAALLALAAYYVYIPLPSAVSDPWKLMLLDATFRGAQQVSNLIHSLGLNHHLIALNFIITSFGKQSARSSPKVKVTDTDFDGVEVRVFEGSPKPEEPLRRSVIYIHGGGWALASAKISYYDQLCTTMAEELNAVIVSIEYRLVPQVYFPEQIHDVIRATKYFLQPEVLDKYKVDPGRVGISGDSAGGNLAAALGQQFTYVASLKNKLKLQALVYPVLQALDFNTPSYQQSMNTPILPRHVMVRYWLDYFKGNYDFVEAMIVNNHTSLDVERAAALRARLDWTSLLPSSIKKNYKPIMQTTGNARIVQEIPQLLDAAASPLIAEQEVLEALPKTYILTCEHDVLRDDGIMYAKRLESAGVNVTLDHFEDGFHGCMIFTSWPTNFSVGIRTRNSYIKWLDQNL
Description: Gel-based competitive ABPP of KIAA1363 in mouse brain membrane proteome (FP-rhodamine). The assay is classed as biochemical. The procedure, abridged: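 Mouse brain membrane fraction (100,000×g pellet) in PBS pH 7.4, preincubated with inhibitor 30 min, then labelled with 1 μM FP-rhodamine for 30 min. Remaining KIAA1363 activity read by SDS/PAGE in-gel fluorescence. IC50 averaged from three replicates.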

Assay [2] deals with T2, AChE (Mus musculus, UniProt P21836).
T2 construct: 20 μg of cell lysate or mouse brain membrane proteome; from tissue; host or cells: mouse brain (membrane proteome)
T2 sequence (P21836 32-614): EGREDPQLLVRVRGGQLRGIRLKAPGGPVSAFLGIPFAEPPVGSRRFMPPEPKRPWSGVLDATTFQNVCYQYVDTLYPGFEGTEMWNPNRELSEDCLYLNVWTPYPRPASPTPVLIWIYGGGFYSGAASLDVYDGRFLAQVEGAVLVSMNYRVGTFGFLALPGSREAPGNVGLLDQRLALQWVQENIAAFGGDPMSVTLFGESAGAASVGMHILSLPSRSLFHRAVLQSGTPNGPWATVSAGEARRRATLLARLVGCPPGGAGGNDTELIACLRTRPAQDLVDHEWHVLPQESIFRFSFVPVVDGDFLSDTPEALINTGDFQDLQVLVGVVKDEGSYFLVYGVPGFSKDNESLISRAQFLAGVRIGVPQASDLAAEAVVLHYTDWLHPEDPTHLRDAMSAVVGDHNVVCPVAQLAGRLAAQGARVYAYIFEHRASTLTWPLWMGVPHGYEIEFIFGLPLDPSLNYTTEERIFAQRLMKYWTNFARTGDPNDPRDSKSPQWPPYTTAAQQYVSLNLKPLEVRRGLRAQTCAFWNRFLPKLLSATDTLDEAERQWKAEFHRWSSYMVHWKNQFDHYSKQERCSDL
Description: AChE activity assay with acetylthiocholine in mouse brain proteome. The assay is classed as biochemical. As to conditions: for Cross-reactivity with AChE: acetylthiocholine hydrolysis in mouse brain membrane proteome; for IC50: mouse brain proteome, substrate acetylthiocholine, n=3, read-out: IC50 for AChE (FIG. 2D). The procedure:
AChE activity was measured using a method similar to that described previously (Ellman et al., 1961). Briefly, 50 μL of 10 mM acetylthiocholine was added to 200 μL of PBS containing 2 mM DTNB and 20 μg of cell lysate or mouse brain membrane proteome. Absorbance was measured at 412 nm over 5 min, and the rate of product accumulation was calculated from the slope of the absorbance over time. For assays involving preincubation with inhibitors, the reactions were prepared without acetylthiocholine and JW480 was incubated at the indicated concentration for 30 min at 37° C. Acetylthiocholine was then added and the assay was carried out exactly as described above.

For assay [3], the system named is MAGE levels in PC3 and DU145 cells. Description: Lipid (MAGE) measurements in cancer cells. The format is cell-based, human. The note with it: for MAGE levels: 10 μM, 4 h in situ. The procedure:
(§1) Inhibitors were dissolved in DMSO and diluted into media or buffer prior to cell or proteome treatment, respectively. For in vitro treatment, final DMSO concentration was 4%. For in situ treatments of cells for ABPP, lipid measurements, migration, cell-survival, and invasion assays, 2×10^6 cells were seeded in 6 cm dishes (˜100% confluency) 24 h prior to inhibitor pre-treatment (in DMSO at 0.1% final concentration) in serum-free media (3 mL) for the designated time before harvesting cells for ABPP or lipid measurements or before the initiation of migration, cell-survival, and invasion assays.
Lipid measurements were performed in cancer cells as previously described (Chiang et al., 2006). Briefly, frozen cell pellets from cells harvested after 4 h serum starvation were extracted in 2:1:1 chloroform:methanol:Tris buffer pH 8.0 by dounce homogenization with 10 nmol of internal standard C12 MAGE. The organic layer was removed, dried under N2, and resuspended in 120 μL of chloroform, and 30 μL was injected into an Agilent 1100-MSD LC-MS. MAGE levels were quantified by measuring the area under the peak and were normalized to the C12 MAGE internal standard.

Assay [4] has as its system PC3 and DU145 cells. Description: Invasion assay (Matrigel chambers). The assay is classed as cell-based, human. The note with it: for PC3 and DU145 invasion: 10 μM, 4 h in situ. The procedure: as §1
(§2) Cell migration, cell survival, and invasion studies were performed as previously described (Nomura et al., 2010). Briefly, migration assays were performed in Transwell chambers (Corning) with 8 μm pore-sized membranes coated with 10 μg/mL collagen at 37° C. for LNCaP (24 h), PC3 (4 h) and DU145 cells (24 h), respectively. Cell survival assays were performed using the Cell Proliferation Reagent WST-1 (Roche) Invasion assays were conducted using the BD Matrigel Invasion Chambers per the manufacturer's protocol. Inhibitors were preincubated for the stated duration before seeding cells into migration, cell-survival, or invasion chambers. Prior to seeding the cells in these chambers, cells were serum-starved for 4 h. Inhibitors were also present during the migration, cell-survival, and invasion assays.

Assay [5] relates to PC3 and DU145 cells. Description: Serum-free cell survival assay (WST-1). As to conditions: for PC3 and DU145 serum-free cell survival: 10 μM, 4 h in situ. The format is cell-based, human. The procedure: as §1, §2
Where [6] appears, read: competitive ABPP in mouse brain proteome, n=3, read-out: IC50 for KIAA1363 (FIG. 2D).
Setting [7] is: mouse brain KIAA1363, read-out: IC50 for KIAA1363.
[8] abbreviates: mouse brain membrane proteome, inhibitor 30 min before FP-rhodamine (1 μM, 30 min), averages of three replicates, read-out: IC50 (KIAA1363).

For `COc1ccc(CNC(=O)Oc2cccc3c2OC(C)(C)C3)cc1` [JW148, 2,2-dimethyl-2,3-dihydrobenzofuran-7-yl 4-methoxybenzylcarbamate], the half-maximal inhibitory concentration (IC50) was 200 nM in assay [1] (setting [6]); roughly 200 nM in assay [1] (setting [7]); 117 nM in assay [1] (setting [8]); less than 1000 nM in assay [1] (screened against KIAA1363, Table 1, read-out: IC50 values of less than 1 micromolar); 1000 nM in assay [2]. In assay [2], the “Cross-reactivity with AChE” value is recorded as “cross-reactivity”. Moreover, the MAGE levels entry in assay [3] was “lower MAGE levels”. In addition, in assay [4], the “PC3 and DU145 invasion” value is listed as “impair”. The “PC3 and DU145 serum-free cell survival” value in assay [5] is listed as “impair”.
As for `CC(C)c1ccccc1OC(=O)NCCc1ccc2ccccc2c1` [JW480, 2-isopropylphenyl (2-(naphthalen-2-yl)ethyl)carbamate], the concentration for half-maximal inhibition (IC50) in assay [1] (setting [6]) was 20 nM; in assay [1] (setting [7]), 20 nM; in assay [1] (setting [8]), 13.9 nM; in assay [1] (screened against KIAA1363, Table 1, read-out: IC50 values of around 10 nanomolar (most potent)), roughly 10 nM; in assay [2], greater than 100000 nM. The “Cross-reactivity with AChE” value in assay [2] was “negligible cross-reactivity”. In assay [3] (1 μM, 48 hr), the MAGE lipids result was “significant reductions”. The MAGE levels result in assay [3] is “lower MAGE levels”. In assay [4] (1 μM, 48 h in situ), the “Invasion of PC3 cells” value is given as “reduced”. Besides, in assay [4], the “PC3 and DU145 invasion” value was “impair”. In addition, in assay [5] (1 μM, 48 h in situ), the “Serum-free cell survival of PC3 cells” value was “reduced”. Also, the “PC3 and DU145 serum-free cell survival” value in assay [5] is “impair”.
